Measured values published in ChEMBL document CHEMBL1909046, “DrugMatrix in vitro pharmacology data”.

Columns and labels:
Adenosine receptor A2a = Adenosine receptor A2a (Homo sapiens, UniProt P29274); assay: DRUGMATRIX: Adenosine A2A radioligand binding (ligand: […]); assay type: cell membranes, HEK293, Membrane; conditions: hek293; Not Active = under 50% inhibition at 10 µM
[1] = DRUGMATRIX: GABAA, Muscimol, Central radioligand binding (ligand: [3H] Muscimol); assay type: cell membranes, Rattus norvegicus, Wistar, Brain, Membrane; conditions: Not Active = under 50% inhibition at 10 µM
[2] = DRUGMATRIX: Sodium/nucleoside co-transporter radioligand binding (ligand: nitrobenzylthioinosine); assay type: cell membranes, Cavia porcellus, Dunkin-Hartley, Cerebral cortex, Membrane; conditions: Not Active = under 50% inhibition at 10 µM
[3] = DRUGMATRIX: Platelet-Derived Growth Factor (PDGF) radioligand binding (ligand: [125I] PDGF); assay type: cell-based; conditions: nih3t3; Not Active = under 50% inhibition at 10 µM
Adenosine receptor A3 = biological target: T1, Adenosine receptor A3 (Homo sapiens, UniProt P0DMS8); assay type: cell membranes, CHO-K1, Membrane; conditions: cho-k1;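 note: radioligand binding assay with AB-MECA serving as the labeled ligand; in other assays of this panel Not Active means under 50% inhibition at 10 µM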
T1 sequence (P0DMS8 whole entry): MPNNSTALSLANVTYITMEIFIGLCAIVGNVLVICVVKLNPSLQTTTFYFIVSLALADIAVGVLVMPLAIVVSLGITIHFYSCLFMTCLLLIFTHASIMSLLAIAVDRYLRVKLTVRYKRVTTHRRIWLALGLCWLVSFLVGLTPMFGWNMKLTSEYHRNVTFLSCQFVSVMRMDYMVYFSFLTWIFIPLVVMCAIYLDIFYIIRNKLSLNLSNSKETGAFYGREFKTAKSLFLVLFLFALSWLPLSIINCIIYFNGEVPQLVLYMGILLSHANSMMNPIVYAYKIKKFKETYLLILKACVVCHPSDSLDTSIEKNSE

[4] = biological target: T2, Type-2 angiotensin II receptor (Homo sapiens, UniProt P50052); assay type: cell-based; conditions: cho-k1; note: in other assays of this panel Not Active means under 50% inhibition at 10 µM
T2 sequence (P50052 whole entry): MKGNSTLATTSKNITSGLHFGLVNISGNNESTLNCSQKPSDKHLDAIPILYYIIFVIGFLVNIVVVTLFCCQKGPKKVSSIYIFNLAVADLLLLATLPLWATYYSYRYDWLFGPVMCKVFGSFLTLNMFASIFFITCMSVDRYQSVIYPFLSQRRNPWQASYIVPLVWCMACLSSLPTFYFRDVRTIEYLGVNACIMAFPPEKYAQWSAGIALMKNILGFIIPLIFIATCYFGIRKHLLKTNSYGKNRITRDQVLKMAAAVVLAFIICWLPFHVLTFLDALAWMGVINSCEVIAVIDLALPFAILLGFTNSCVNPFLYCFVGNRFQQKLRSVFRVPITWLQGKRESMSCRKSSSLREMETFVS

Vasopressin V1a receptor = Vasopressin V1a receptor (Homo sapiens, UniProt P37288); assay type: cell membranes, Membrane; conditions: hek293; note: in other assays of this panel Not Active means under 50% inhibition at 10 µM
Vasopressin V1a receptor, sequence (P37288 whole entry): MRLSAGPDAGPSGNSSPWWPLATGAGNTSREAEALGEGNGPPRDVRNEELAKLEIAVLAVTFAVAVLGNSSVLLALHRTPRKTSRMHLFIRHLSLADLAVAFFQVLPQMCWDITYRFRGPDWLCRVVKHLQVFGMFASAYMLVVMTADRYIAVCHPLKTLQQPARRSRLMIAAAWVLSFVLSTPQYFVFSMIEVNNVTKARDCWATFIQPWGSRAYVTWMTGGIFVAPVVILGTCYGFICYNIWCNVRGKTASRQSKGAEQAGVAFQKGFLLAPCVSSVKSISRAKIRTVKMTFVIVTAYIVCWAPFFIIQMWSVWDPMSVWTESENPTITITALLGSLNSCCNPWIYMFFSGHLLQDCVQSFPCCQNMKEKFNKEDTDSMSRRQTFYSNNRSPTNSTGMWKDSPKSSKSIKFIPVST

Substance-P receptor = Substance-P receptor (Homo sapiens, UniProt P25103); assay type: cell membranes, Membrane; conditions: cho; note: in other assays of this panel Not Active means under 50% inhibition at 10 µM
Substance-P receptor, sequence (P25103 whole entry): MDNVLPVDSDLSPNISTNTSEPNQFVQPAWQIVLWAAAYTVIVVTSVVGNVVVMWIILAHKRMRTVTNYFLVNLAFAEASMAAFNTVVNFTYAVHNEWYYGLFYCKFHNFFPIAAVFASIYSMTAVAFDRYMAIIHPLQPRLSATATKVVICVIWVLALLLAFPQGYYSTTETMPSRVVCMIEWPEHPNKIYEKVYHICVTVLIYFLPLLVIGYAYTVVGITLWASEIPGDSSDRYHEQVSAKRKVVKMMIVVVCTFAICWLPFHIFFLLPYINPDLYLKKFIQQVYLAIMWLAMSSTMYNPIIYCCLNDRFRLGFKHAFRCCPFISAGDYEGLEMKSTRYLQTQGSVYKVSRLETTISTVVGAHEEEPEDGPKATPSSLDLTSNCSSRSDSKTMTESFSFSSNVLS

[5] = DRUGMATRIX: Glutamate, NMDA, Phencyclidine radioligand binding (ligand: [3H] TCP); assay type: cell membranes, Rattus norvegicus, Wistar, Cerebral cortex, Membrane; conditions: Not Active = under 50% inhibition at 10 µM
[6] = biological target: 5-hydroxytryptamine receptor 1B (Rattus norvegicus, UniProt P28564); assay type: cell membranes, Wistar, Cerebral cortex, Membrane; conditions: for Ki: read-out: Ki
5-hydroxytryptamine receptor 1B, sequence (P28564 whole entry): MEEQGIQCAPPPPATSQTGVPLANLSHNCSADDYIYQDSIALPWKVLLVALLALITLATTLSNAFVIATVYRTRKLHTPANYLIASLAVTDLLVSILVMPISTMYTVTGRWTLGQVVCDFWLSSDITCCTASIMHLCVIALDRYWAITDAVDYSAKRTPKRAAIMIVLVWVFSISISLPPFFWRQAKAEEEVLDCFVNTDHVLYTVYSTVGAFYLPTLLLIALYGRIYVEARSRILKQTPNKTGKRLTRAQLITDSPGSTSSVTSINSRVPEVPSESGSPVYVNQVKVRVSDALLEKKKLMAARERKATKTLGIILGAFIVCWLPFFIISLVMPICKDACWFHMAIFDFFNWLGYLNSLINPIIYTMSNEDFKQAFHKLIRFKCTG

Adenosine receptor A2a, sequence (P29274 whole entry): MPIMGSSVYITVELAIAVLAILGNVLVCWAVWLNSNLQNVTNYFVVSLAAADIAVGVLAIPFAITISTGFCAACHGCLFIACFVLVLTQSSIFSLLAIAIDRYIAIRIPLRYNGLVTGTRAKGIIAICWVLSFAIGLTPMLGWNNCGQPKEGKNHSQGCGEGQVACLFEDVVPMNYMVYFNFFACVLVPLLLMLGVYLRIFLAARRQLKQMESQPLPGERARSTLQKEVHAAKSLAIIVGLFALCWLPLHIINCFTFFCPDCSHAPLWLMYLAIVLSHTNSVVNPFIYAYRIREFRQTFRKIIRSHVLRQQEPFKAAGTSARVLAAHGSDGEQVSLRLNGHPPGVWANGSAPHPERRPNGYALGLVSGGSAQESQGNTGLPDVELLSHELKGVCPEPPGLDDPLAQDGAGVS

Row | SMILES | IC50 (Adenosine receptor A2a) | IC50 [1] | Ki [1] | IC50 [2] | Ki [2] | IC50 [3] | Ki [3] | IC50 (Adenosine receptor A3) | IC50 [4] | IC50 (Vasopressin V1a receptor) | IC50 (Substance-P receptor) | IC50 [5] | Ki [5] | IC50 [6] | IC50 ([6]; read-out: IC50) [µM] | Ki [6] [µM] | IC50 ([2]; read-out: IC50) [µM] | Ki ([2]; read-out: Ki) [µM]
1 | CC1=C(CC(=O)O)c2cc(F)ccc2/C1=C\c1ccc([S+](C)[O-])cc1 (stereo not given) | Not Active | Not Active | Not Active | Not Active | Not Active | Not Active | Not Active | Not Active | Not Active | Not Active | Not Active | Not Active | Not Active | Not Active | – | – | – | –
2 | N[C@H](CSC(=S)NCc1ccccc1)C(=O)O | Not Active | Not Active | Not Active | Not Active | Not Active | Not Active | Not Active | Not Active | Not Active | Not Active | Not Active | Not Active | Not Active | Not Active | – | – | – | –
3 | CC(=O)N[C@@H]1[C@H](Oc2c3cc4cc2Oc2ccc(cc2Cl)[C@@H](O[C@@H]2O[C@@H](CO)[C@@H](O)[C@H](O)[C@@H]2NC(C)=O)[C@@H]2NC(=O)[C@H](NC(=O)[C@@H]4NC(=O)[C@H]4NC(=O)[C@@H](Cc5ccc(c(Cl)c5)O3)NC(=O)[C@H](N)c3ccc(O)c(c3)Oc3cc(O)cc4c3)c3ccc(O)c(c3)-c3c(O[C@H]4O[C@H](CO)[C@@H](O)[C@@H](O)[C@@H]4O)cc(O)cc3[C@@H](C(=O)O)NC2=O)O[C@@H](CO)[C@@H](O)[C@@H]1O | Not Active | Not Active | Not Active | Not Active | Not Active | Not Active | Not Active | Not Active | Not Active | Not Active | Not Active | Not Active | Not Active | Not Active | – | – | – | –
4 | Clc1ccc2c(c1)C(N1CCNCC1)=Nc1ccccc1O2 [AMOXAPINE] | Not Active | – | – | – | – | – | – | Not Active | Not Active | Not Active | Not Active | – | – | Not Active | – | – | – | –
5 | COc1cc2c(c(OC)c1OC)-c1ccc(OC)c(=O)cc1[C@@H](NC(C)=O)CC2 [COLCHICINE] | Not Active | – | – | – | – | – | – | Not Active | Not Active | Not Active | Not Active | – | – | Not Active | – | – | – | –
6 | CN1CCC(=C2c3ccccc3C=Cc3ccccc32)CC1 [CYPROHEPTADINE] | Not Active | – | – | – | – | – | – | Not Active | Not Active | Not Active | Not Active | – | – | – | 2.78 | 1.26 | – | –
7 | CC/C(=C(/CC)c1ccc(O)cc1)c1ccc(O)cc1 [DIETHYLSTILBESTROL] | – | – | – | – | – | – | – | – | Not Active | – | Not Active | – | – | Not Active | – | – | – | –
8 | CC(=O)N1CCN(c2ccc(OCC3COC(Cn4ccnc4)(c4ccc(Cl)cc4Cl)O3)cc2)CC1 (stereo not given) [KETOCONAZOLE] | Not Active | Not Active | Not Active | – | – | Not Active | Not Active | Not Active | Not Active | Not Active | Not Active | Not Active | Not Active | – | 13.5 | 6.15 | 4.41 | 1.51
9 | C=CCN1CC[C@]23c4c5ccc(O)c4O[C@H]2C(=O)CC[C@@]3(O)[C@H]1C5 [NALOXONE] | Not Active | – | – | – | – | – | – | Not Active | Not Active | Not Active | Not Active | – | – | Not Active | – | – | – | –
